Experimental data as given in patent US4233296A, “11β-Substituted-Δ^4,9 -estradienes” (Roussel Uclaf, priority 1977, dated 1980).

Tests used:
[1] = target: T1, specific uterine reception of progesterone (progesterone receptor, uterus cytosol) (Oryctolagus cuniculus, UniProt P06186); experiment: Progestomimetic activity: hormonal receptor method, displacement of tritiated 17,21-dimethyl-19-nor-Δ4,9-pregnadiene-3,20-dione in uterus cytosol; format: binding, rabbit; conditions: for affinity for uterine progesterone receptor compared with progesterone (in words): conclusion from Table VI; for ARL (relative affinity of the test product): progesterone = 100, from CP and CX (concentrations inhibiting by 50% the fixation of tritiated product R), immature rabbit uterus cytosol, 0° C., 2 hours
T1 construct: the uterus was removed and homogenized in a buffered solution; from tissue; host or cells: uterus cytosol (105,000 g supernatant) of estradiol-primed immature rabbits
T1 sequence (P06186 1-930): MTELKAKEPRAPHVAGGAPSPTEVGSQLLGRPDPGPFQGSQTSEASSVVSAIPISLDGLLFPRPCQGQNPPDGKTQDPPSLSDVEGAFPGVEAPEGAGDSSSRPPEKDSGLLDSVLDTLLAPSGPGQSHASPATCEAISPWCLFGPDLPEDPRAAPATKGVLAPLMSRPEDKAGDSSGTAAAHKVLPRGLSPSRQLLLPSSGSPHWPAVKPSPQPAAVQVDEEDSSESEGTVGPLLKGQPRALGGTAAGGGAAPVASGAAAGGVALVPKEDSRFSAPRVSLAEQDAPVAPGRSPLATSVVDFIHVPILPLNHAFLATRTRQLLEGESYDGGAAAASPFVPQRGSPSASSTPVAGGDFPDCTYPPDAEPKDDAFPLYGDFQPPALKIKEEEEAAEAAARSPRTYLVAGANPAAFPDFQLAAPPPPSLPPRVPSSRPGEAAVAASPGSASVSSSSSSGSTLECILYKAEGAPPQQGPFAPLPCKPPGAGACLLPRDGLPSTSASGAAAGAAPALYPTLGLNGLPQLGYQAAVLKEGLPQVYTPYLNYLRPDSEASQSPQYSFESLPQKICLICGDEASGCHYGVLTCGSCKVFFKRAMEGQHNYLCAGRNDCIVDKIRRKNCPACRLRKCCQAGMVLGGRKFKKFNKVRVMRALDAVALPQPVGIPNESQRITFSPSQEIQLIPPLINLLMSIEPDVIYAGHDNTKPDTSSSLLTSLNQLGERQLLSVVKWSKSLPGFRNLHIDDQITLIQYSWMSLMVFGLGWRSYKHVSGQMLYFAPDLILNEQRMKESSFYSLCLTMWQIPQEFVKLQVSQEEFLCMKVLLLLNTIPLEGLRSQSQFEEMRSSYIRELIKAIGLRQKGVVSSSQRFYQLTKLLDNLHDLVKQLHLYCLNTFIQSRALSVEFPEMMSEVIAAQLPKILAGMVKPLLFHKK
Description: The progestomimetic activity was determined for 11β-vinyl-17α-methyl-17β-acetyl-Δ^4,9 -estradiene-3-one [product A], 11β-vinyl-17α-acetoxy-17β-acetyl-Δ^4,9 -estradiene-3-one [product B] and 11β-vinyl-17α-ethynyl-Δ^4,9 -estradiene-17α-ol-3-one [product C] was determined by the hormonal receptor method of Raynaud et al [J. Ster. Biochem., Vol. 6 (1975), p-615-622 and Physiology and Genetics of Reproduction, part A (1975), p. 143-160]. Immature rabbits received subcutaneously 25γ of estradiol and 5 days later, the animals were sacrificed and the uterus was removed and homogenized in a buffered solution of 10 mm of tromethamine, 0.25 M of saccharose and a pH of 7.4 with hydrochloric acid. The homogenate was centrifuged at 105,000 g per hour and the surnageant or cytosol was adjusted to a dilution of 1/50 (weight/volume). […] The radioactivity of the tritiated product R was determined after 2 hours by the technique of adsorption on carbon-dextran (1.25-0.625%). The curves representing the percentage of tritiated product R as a function of the log of the concentration, of cold product R, of progesterone or the test products and the I50 straight line parallel to the axis of the abcisses and ordinates were plotted. [formula] B/T max. is the percentage of tied tritiated product R when the product is not added and B/T min. is the percentage of tied tritiated product R when the maximum amount of cold product R is added. The intersections of these I50 straight lines and the curves permit the determination of the values: CP - concentration of cold progesterone which inhibits by 50% the fixation of the tritiated product R and CX-concentration of test product which inhibits by 50% the fixation of tritiated product R. The relative affinity of the test product (ARL) was determined by the formula [formula] and the results are reported in Table VI.

[2] = target: T2, prostatic androgenic reception of testosterone (androgen receptor, prostate cytosol) (Rattus norvegicus, UniProt P15207); experiment: Androgenic activity: hormonal receptor method, displacement of tritiated 17α-methyl-Δ4,9,11-estratriene-17β-ol-3-one in prostate cytosol; format: binding
T2 construct: The prostate was recovered from male rats castrated 24 hours earlier and was homogenized; from tissue; host or cells: prostate cytosol (105,000 g supernatant) of male rats castrated 24 hours earlier
T2 sequence (P15207 1-902): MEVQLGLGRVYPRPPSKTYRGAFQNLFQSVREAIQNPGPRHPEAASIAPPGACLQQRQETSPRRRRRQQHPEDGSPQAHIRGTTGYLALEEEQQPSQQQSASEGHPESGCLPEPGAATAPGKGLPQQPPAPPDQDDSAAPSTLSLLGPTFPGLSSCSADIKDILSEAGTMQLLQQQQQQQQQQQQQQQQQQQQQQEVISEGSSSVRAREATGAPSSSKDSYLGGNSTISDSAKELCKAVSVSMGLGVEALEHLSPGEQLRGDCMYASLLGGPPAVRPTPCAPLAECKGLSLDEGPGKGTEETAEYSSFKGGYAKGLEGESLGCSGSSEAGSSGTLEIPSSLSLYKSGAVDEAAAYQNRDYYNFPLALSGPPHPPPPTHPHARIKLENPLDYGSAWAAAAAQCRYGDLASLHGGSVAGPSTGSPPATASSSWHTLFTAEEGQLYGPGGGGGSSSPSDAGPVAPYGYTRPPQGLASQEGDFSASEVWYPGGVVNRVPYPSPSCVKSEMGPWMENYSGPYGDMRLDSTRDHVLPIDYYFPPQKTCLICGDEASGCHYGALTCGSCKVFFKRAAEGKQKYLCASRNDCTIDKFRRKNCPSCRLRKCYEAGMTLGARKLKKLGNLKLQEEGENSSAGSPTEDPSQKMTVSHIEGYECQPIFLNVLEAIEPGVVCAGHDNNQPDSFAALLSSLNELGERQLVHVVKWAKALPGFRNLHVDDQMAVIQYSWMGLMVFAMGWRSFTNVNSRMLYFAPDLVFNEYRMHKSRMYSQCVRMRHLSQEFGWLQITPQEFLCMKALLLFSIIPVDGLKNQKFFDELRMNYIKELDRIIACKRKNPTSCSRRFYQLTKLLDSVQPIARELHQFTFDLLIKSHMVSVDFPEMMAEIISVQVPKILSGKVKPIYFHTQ
Description: This test also used the method of Raynaud et al discussed above. The prostate was recovered from male rats castrated 24 hours earlier and was homogenized in a buffer containing 10 mm of tromethamine and 0.25 M of saccharose and sufficient hydrochloric acid for a pH of 7.4. The homogenate was centrifuged at 105,000 g for one hour and the surnageant liquid or cytosol was adjusted to a dilution of 1/5 (weight/volume).
The radioactivity of the tied tritiated product was determined after 2 hours by absorption technique on carbon-dextran (1.25%-0.625%). […] [formula] were ploted. B/T max. is the percentage of tied tritiated product R when the product is not added and B/T min. is the percentage of tied tritiated product R when the maximum amount of cold product R is added.

| Compound | affinity for uterine progesterone receptor compared with progesterone (in words) [1] | ARL (relative affinity of the test product) [1] | affinity for prostatic androgen receptor compared with testosterone (in words) ([2]; conclusion from Table VII) | ARL (relative affinity of the test product) ([2]; testosterone = 100, from CT and CX (concentrations inhibiting by 50% the fixation of tritiated product R), castrated rat prostate cytosol, 0° C., 2 hours) |
| --- | --- | --- | --- | --- |
| C=C[C@H]1C[C@@]2(C)[C@@H](CC[C@]2(C)C(C)=O)[C@@H]2CCC3=CC(=O)CCC3=C21 [Product A, 11β-vinyl-17α-methyl-17β-acetyl-Δ^4,9-estradiene-3-one] | greater affinity for specific uterine reception of progesterone than progesterone | 160 |  |  |
| C=C[C@H]1C[C@@]2(C)[C@@H](CC[C@]2(OC(C)=O)C(C)=O)[C@@H]2CCC3=CC(=O)CCC3=C21 [Product B, 11β-vinyl-17α-acetoxy-17β-acetyl-Δ^4,9-estradiene-3-one] | greater affinity for specific uterine reception of progesterone than progesterone | 120 |  |  |
| C#C[C@]1(O)CC[C@H]2[C@@H]3CCC4=CC(=O)CCC4=C3[C@@H](C=C)C[C@@]21C [Product C, 11β-vinyl-17α-ethynyl-Δ^4,9-estradiene-17β-ol-3-one] | greater affinity for specific uterine reception of progesterone than progesterone | 150 |  |  |
| C=C(C)[C@H]1C[C@@]2(C)[C@@H](CC[C@]2(C)O)[C@@H]2CCC3=CC(=O)CCC3=C12 [Product D, 11β-isopropenyl-17α-methyl-Δ^4,9-estradiene-17β-ol-3-one] |  |  | affinity on the order of that of testosterone | 80 |
